The structures appear in SMILES notation. Values joined by “and” are separate entries in the source; they are usually repeats but may differ in a detail not shown here. Identical values can stand only once. Inconclusive results and toxic doses are left out.

These results are taken from PubChem BioAssay AID330 (DTP/NCI, 2004).

This assay relates to P388 leukemia ip, CD2F1 mice, survival T/C. Briefly: NCI In Vivo Anticancer Drug Screen. Data for tumor model P388 Leukemia (intraperitoneal) in CD2F1 (CDF1) mice. To be noted: endpoint: median survival time, higher = longer survival. The procedure, abridged:
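Mice carrying the transplanted tumor received test compound or vehicle. Survival was recorded in each group, and the value is the treated-group measurement divided by that of the vehicle-treated control group.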

Where [1] appears, read: dose: 60.0 mg/kg/injection, schedule: Q01DX005 (ip), vehicle: Klucel (hydroxypropylcellulose) (HPC).
Where [2] appears, read: dose: 120.0 mg/kg/injection, schedule: Q01DX005 (ip), vehicle: Klucel (hydroxypropylcellulose) (HPC).
[3] abbreviates: dose: 240.0 mg/kg/injection, schedule: Q01DX005 (ip), vehicle: Klucel (hydroxypropylcellulose) (HPC).
The mark [4] stands for this setting: dose: 50.0 mg/kg/injection, schedule: Q01DX009 (ip), vehicle: saline.
Setting [5] is: dose: 100.0 mg/kg/injection, schedule: Q01DX009 (ip), vehicle: saline.
Where [6] appears, read: dose: 50.0 mg/kg/injection, schedule: Q01DX009 (ip), vehicle: saline + Tween-80 + alcohol.
Where [7] appears, read: dose: 100.0 mg/kg/injection, schedule: Q01DX009 (ip), vehicle: saline + Tween-80 + alcohol.
[8] abbreviates: dose: 200.0 mg/kg/injection, schedule: Q01DX009 (ip), vehicle: saline + Tween-80 + alcohol.
The mark [9] stands for this setting: dose: 50.0 mg/kg/injection, schedule: Q01DX005 (ip), vehicle: Klucel (hydroxypropylcellulose) (HPC).
Where [10] appears, read: dose: 100.0 mg/kg/injection, schedule: Q01DX005 (ip), vehicle: Klucel (hydroxypropylcellulose) (HPC).
Where [11] appears, read: dose: 200.0 mg/kg/injection, schedule: Q01DX005 (ip), vehicle: Klucel (hydroxypropylcellulose) (HPC).
Where [12] appears, read: dose: 100.0 mg/kg/injection, schedule: Q04DX003 (ip), vehicle: Klucel (hydroxypropylcellulose) (HPC).
The mark [13] stands for this setting: dose: 200.0 mg/kg/injection, schedule: Q04DX003 (ip), vehicle: Klucel (hydroxypropylcellulose) (HPC).
[14] abbreviates: dose: 400.0 mg/kg/injection, schedule: Q04DX003 (ip), vehicle: Klucel (hydroxypropylcellulose) (HPC).
Where [15] appears, read: dose: 100.0 mg/kg/injection, schedule: Q01DX001 (ip), vehicle: Klucel (hydroxypropylcellulose) (HPC).

As for `ONC(=Nc1cccc2ccccc12)C(=Nc1cccc2ccccc12)NO`, the T/C is, setting by setting: under setting [1], 99 % of control; under setting [2], 102 % of control; under setting [3], 103 % of control.

`CN(C)CCC(=O)c1ccc(Cl)cc1Cl`: the T/C was 110 % of control under setting [4] and 100 % of control under setting [5].

Turning to `CC(C)(C)c1cc(C#C[Si](C)(C)C)cc(C(C)(C)C)c1`, the T/C (dose: 6.25 mg/kg/injection, schedule: Q01DX005 (ip), vehicle: Klucel (hydroxypropylcellulose) (HPC)) is 98 % of control; the T/C (dose: 12.5 mg/kg/injection, schedule: Q01DX005 (ip), vehicle: Klucel (hydroxypropylcellulose) (HPC)) was 101 % of control; the T/C (dose: 25.0 mg/kg/injection, schedule: Q01DX005 (ip), vehicle: Klucel (hydroxypropylcellulose) (HPC)) was 92 % of control.

On to `O=P(c1ccccc1)(c1ccccc1)c1ccccc1.O=P(c1ccccc1)(c1ccccc1)c1ccccc1.O=P(c1ccccc1)(c1ccccc1)c1ccccc1.O=P(c1ccccc1)(c1ccccc1)c1ccccc1.[Ce+3].[O-][Cl+3]([O-])([O-])O`, for which the T/C under setting [6] is 96 % of control, the T/C under setting [7] was 89 % of control and the T/C under setting [8] was 87 % of control.

Take `CN1C(=O)NC2(CCCCC2)C1=O`: the T/C runs as follows: under setting [9], 105 % of control; under setting [10], 100 % of control; under setting [11], 100 % of control.

For the compound `CN1CCC(/C=C/c2ccccc2)CN1` (centres undefined) (tested in a mixture with another compound), the T/C runs as follows: under setting [4], 113 % of control; under setting [5], 118 % of control.

In the case of `C/C=C/C=C/C(=O)CCC1(C)OC(=O)C(C)=C1O` (centres undefined), the T/C under setting [9] is 96 % of control, the T/C under setting [10] was 113 % of control and the T/C under setting [11] was 93 % of control.

Take `COc1ccc(CN2CC(C)(NC(=O)OCc3ccccc3)C2=O)c(OC)c1` (centres undefined): the T/C is 106 % of control (dose: 50.0 mg/kg/injection, schedule: Q01DX005 (ip), vehicle: saline with Tween-80); 98 % of control (dose: 100.0 mg/kg/injection, schedule: Q01DX005 (ip), vehicle: saline with Tween-80); 103 % of control (dose: 200.0 mg/kg/injection, schedule: Q01DX005 (ip), vehicle: saline with Tween-80).

Consider `COc1cccc(C2CC(C)(O)Oc3cc4c(cc32)OCO4)c1` (centres undefined), for which, under setting [1], the T/C was 93 % of control.

Take `Cc1cc(N=[N+]=[N-])c2ccccc2n1`: the T/C (dose: 60.0 mg/kg/injection, schedule: Q01DX005 (ip), vehicle: saline with Tween-80) was 105 % of control and the T/C (dose: 120.0 mg/kg/injection, schedule: Q01DX005 (ip), vehicle: saline with Tween-80) was 94 % of control.

For `C1=C[N-]c2c3c(ccc2=C1)=CC=C[N-]3.C1=C[N-]c2c3c(ccc2=C1)=CC=C[N-]3.O=S(=O)(O)O.[Cu+2]`, the T/C (dose: 1.56 mg/kg/injection, schedule: Q04DX002 (ip), vehicle: Klucel (hydroxypropylcellulose) (HPC)) is 117 % of control; the T/C (dose: 3.12 mg/kg/injection, schedule: Q04DX002 (ip), vehicle: Klucel (hydroxypropylcellulose) (HPC)) was 107 % of control; the T/C (dose: 6.25 mg/kg/injection, schedule: Q04DX002 (ip), vehicle: Klucel (hydroxypropylcellulose) (HPC)) was 107 % of control; the T/C (dose: 12.5 mg/kg/injection, schedule: Q04DX002 (ip), vehicle: Klucel (hydroxypropylcellulose) (HPC)) is 115 % of control.

Take `COc1ccc(/C=C2/C/C(=C/c3ccc(OC)cc3)C2=O)cc1`: the T/C is 95 % of control under setting [12], 103 % of control under setting [13] and 97 % of control under setting [14].

On to `N#CC(Cl)CNC(=O)Oc1ccccc1` (centres undefined), for which, under setting [9], the T/C was 97 % of control.

For `COc1ccc2c(C)cc(=O)sc2c1`, the T/C runs as follows: under setting [6], 101 % of control; under setting [7], 104 % of control; under setting [8], 100 % of control.

As to `O=C(NN(Cn1c(=S)sc2ccccc21)Cn1c(=S)sc2ccccc21)c1ccncc1`, the T/C reads like this: (dose: 3.12 mg/kg/injection, schedule: Q01DX009 (ip), vehicle: Klucel (hydroxypropylcellulose) (HPC)) 105 % of control and 98 % of control; (dose: 6.25 mg/kg/injection, schedule: Q01DX009 (ip), vehicle: Klucel (hydroxypropylcellulose) (HPC)) 93 % of control and 94 % of control; (dose: 12.5 mg/kg/injection, schedule: Q01DX009 (ip), vehicle: Klucel (hydroxypropylcellulose) (HPC)) 88 % of control and 92 % of control.

Consider `CN(C)c1ccc(C(=C2C=CC(=[N+](C)C)C=C2)c2ccc(N(C)C)cc2)cc1`, for which the T/C (dose: 0.19 mg/kg/injection, schedule: Q01DX009 (ip), vehicle: saline) was 108 % of control and the T/C (dose: 0.39 mg/kg/injection, schedule: Q01DX009 (ip), vehicle: saline) is 123 % of control.

Regarding `c1ccc(CN2Cc3c(n(-c4ccccc4)c4ccccc34)C2)cc1`, the T/C was 105 % of control under setting [12], 112 % of control under setting [13] and 114 % of control under setting [14].

On to `CC(C)C(=NN/C=N/S(C)(=O)=O)C(C)C`, for which the T/C reads like this: (dose: 25.0 mg/kg/injection, schedule: Q01DX001 (ip), vehicle: Klucel (hydroxypropylcellulose) (HPC)) 92 % of control; (dose: 50.0 mg/kg/injection, schedule: Q01DX001 (ip), vehicle: Klucel (hydroxypropylcellulose) (HPC)) 112 % of control; under setting [15], 97 % of control.

On to `COc1cccc(/C=C2/C(=O)N(c3ccc([N+](=O)[O-])cc3)N=C2C)c1`, for which the T/C by setting is: (dose: 30.0 mg/kg/injection, schedule: Q01DX005 (ip), vehicle: Klucel (hydroxypropylcellulose) (HPC)) 97 % of control; under setting [1], 88 % of control; under setting [2], 98 % of control; under setting [3], 93 % of control.

`CNCCNc1ncc([N+](=O)[O-])s1`: the T/C by setting is: (dose: 25.0 mg/kg/injection, schedule: Q01DX001 (ip), vehicle: saline) 115 % of control and 118 % of control; (dose: 50.0 mg/kg/injection, schedule: Q01DX001 (ip), vehicle: saline) 122 % of control and 124 % of control.

Turning to `CC(=O)OB(OC(C)=O)O[B-]12Oc3ccccc3C=[N+]1c1ccccc1S2` (centres undefined), the T/C by setting is: (dose: 100.0 mg/kg/injection, schedule: Q04DX002 (ip), vehicle: saline with Tween-80) 106 % of control; (dose: 200.0 mg/kg/injection, schedule: Q04DX002 (ip), vehicle: saline with Tween-80) 97 % of control; (dose: 400.0 mg/kg/injection, schedule: Q04DX002 (ip), vehicle: saline with Tween-80) 92 % of control.

On to `O=C(Oc1c(F)c(F)c(F)c(F)c1F)N(CCCl)CCCl`, for which the T/C runs as follows: under setting [15], 101 % of control; (dose: 200.0 mg/kg/injection, schedule: Q01DX001 (ip), vehicle: Klucel (hydroxypropylcellulose) (HPC)) 104 % of control; (dose: 400.0 mg/kg/injection, schedule: Q01DX001 (ip), vehicle: Klucel (hydroxypropylcellulose) (HPC)) 94 % of control.
